Read-outs that look alike come from different tables or passages of the source.
Legend:
xanthine oxidase [1] = molecular target: T1, xanthine oxidase (Homo sapiens (Human), UniProt P47989); experiment: Fluorescence-based xanthine oxidase activity assay; type: biochemical; details: triplicate, 10 concentrations
Description: Xanthine oxidase inhibition was determined using a standard fluorescence-based assay for xanthine oxidase activity (McHale A, Grimes H, Coughlan M P: Int J Biochem. 10:317-9, 1979) with minor variations. […] Experiments on test compounds were performed in triplicate in multi-well plates using 10 concentrations of each compound that ranged over a 3-fold dilution.

URAT1 (SLC22A12) = URAT1 (SLC22A12) (Homo sapiens (Human), UniProt Q96S37); experiment: URAT1 cellular uptake assay (3H-orotate transport, stably transfected URAT-1/CHO cells); type: cell-based; details: 3H-orotate uptake, 7 concentrations 0.01 to 150 μM, read-out: URAT1 IC50 (μM ± SEM)
URAT1 (SLC22A12), sequence (Q96S37 whole entry): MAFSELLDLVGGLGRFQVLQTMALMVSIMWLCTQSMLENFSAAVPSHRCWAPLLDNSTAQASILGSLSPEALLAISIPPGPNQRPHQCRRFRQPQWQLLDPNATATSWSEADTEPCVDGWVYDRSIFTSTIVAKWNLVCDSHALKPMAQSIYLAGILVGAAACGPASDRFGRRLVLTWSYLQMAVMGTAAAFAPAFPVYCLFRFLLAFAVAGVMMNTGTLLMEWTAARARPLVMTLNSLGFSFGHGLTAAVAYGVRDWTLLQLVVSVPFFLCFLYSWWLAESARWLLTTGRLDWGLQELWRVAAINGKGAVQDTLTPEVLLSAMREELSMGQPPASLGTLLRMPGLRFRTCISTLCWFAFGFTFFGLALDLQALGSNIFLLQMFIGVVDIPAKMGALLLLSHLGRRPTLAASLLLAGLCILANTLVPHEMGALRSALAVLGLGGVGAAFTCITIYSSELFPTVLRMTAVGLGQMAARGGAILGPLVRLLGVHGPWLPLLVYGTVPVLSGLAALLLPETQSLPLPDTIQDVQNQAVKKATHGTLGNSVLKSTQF
Description: URAT1 (SLC22A12) activity was evaluated in a cellular uptake assay using a 96-well plate with stably transfected URAT-1/CHO cells. ^3H-orotate was used as the test transport agent, which was measured in a liquid scintillation counter, using benzbromarone as a positive control, and DMSO and non-transfected CHO cells as negative controls (Solvo Biotechnology, Boston, Mass.).

CHO-K1 cells = experiment: In vitro mouse micronucleus assay (a test for cytotoxicity); type: cell-based; details: 24 hr without S9 and 4 hr with S9, 62 μM-1000 μM
Description: The in vitro mouse micronucleus assay was conducted in CHO-K1 cells seeded in 96-well plates and treated with test compounds for 24 hr (without S9) and for 4 hr (with S9). Cytochalasin B was added after 24 hr, and the cells were incubated for an additional 24 hr, after which the cells were fixed and scored for micronuclei. The assay was run using 6 concentrations in duplicate (62 μM-1000 μM), and data for the highest 5 concentrations that were not cytotoxic were reported. Cellular nuclei and micronuclei were stained, and an automated fluorescent microscopic detection system was used to score micronuclei in approximately 2,000 bi-nucleated cells per concentration.

xanthine oxidase [2] = molecular target: T1, xanthine oxidase; details: data taken from publications; cited from earlier work

T1 sequence (P47989 whole entry, species assumed): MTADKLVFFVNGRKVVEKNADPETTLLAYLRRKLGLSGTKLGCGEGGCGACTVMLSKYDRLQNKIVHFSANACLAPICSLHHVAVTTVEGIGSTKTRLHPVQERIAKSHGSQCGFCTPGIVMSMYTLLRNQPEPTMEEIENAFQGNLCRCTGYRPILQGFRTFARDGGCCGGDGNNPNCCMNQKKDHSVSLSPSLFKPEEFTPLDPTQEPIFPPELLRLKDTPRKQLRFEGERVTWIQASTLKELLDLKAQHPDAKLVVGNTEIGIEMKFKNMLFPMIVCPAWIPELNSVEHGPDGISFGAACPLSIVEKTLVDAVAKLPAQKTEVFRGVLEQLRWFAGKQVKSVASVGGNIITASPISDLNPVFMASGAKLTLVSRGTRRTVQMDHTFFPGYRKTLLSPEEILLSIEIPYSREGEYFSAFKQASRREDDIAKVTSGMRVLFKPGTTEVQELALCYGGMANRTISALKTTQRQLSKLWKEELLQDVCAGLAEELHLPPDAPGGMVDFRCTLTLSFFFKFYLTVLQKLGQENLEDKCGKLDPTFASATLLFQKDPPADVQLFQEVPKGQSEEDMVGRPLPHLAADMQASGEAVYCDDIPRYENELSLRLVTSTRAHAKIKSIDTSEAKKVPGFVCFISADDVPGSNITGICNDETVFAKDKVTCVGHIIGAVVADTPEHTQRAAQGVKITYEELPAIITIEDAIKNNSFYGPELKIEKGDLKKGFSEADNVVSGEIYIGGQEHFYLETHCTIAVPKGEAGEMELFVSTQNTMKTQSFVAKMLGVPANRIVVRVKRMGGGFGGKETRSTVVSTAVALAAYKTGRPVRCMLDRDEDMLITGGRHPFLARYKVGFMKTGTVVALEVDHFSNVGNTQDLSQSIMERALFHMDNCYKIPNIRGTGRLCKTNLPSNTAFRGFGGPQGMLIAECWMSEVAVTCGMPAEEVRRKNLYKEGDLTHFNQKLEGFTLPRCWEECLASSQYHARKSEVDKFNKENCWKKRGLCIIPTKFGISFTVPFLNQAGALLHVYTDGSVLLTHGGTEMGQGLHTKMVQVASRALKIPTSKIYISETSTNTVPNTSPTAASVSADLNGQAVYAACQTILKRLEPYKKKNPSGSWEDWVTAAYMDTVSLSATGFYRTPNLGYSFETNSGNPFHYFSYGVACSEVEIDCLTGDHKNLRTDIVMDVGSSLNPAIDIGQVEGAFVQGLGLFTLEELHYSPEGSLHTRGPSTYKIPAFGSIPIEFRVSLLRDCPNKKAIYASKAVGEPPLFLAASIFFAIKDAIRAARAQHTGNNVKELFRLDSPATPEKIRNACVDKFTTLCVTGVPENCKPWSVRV

Row | SMILES | IC50 (xanthine oxidase [1]) | IC50 (URAT1 (SLC22A12)) | Mouse Micronucleus (CHO-K1 cells) | IC50 (xanthine oxidase [2])
1 | O=C(Nc1ccc(O)cc1)c1c(O)[nH]c(=S)[nH]c1=O [4′-hydroxymerbarone, 1,2,3,4-tetrahydro-6-hydroxy-2-thioxo-4-oxo-N-(4′-hydroxyphenyl)-5-pyrimidinecarboxamide] | 0.68 µM | 9.4 ± 0.6 µM | Negative | –
2 | O=C(Nc1ccccc1)c1c(O)[nH]c(=O)[nH]c1=O [2-oxo-desthiomerbarone, 1,2,3,4-tetrahydro-6-hydroxy-2,4-dioxo-N-phenyl-5-pyrimidinecarboxamide] | > 300 µM | 1.2 µM | Positive | –
3 | O=C1NC(=S)NC(=O)C1C(=O)Nc1ccccc1 [Merbarone, 5-(N-phenylcarboxamido)-2-thio-barbituric acid, reference compound] | 274 µM | 5.4 ± 1 µM | Positive | –
4 | O=C(Nc1ccc(O)cc1)c1c(O)[nH]c(=O)[nH]c1=O [4′-hydroxy-2-oxo-desthiomerbarone, 1,2,3,4-tetrahydro-6-hydroxy-2,4-dioxo-N-(4′-hydroxyphenyl)-5-pyrimidinecarboxamide] | 1.06 µM | 2.6 ± 0.6 µM | Negative | –
5 | O=C(O)CSc1nnc(Br)n1-c1ccc(C2CC2)c2ccccc12 [Lesinurad, lesinurad] | – | – | – | > 300 µM
